Data: patent publication US20250319032A1, “PHARMACEUTICAL COMPOSITIONS OF RIBOCICLIB” (Novartis AG, priority 2024, published 2025)
“And” between values parts separate entries of the source, which are not always exact repeats. Equal values may be shown once. One block for each compound: values may come before it.

Tests used:
[1] = Drug product stability (film-coated tablets, tablet cores, blends, binary mixtures): content of DMP433 on storage; format: physicochemical
Protocol: The experiments were packed in aluminium bags.
Blends and compressed (compacted) mixtures of drug substance with the excipients crospovidone (Type A) and microcrystalline cellulose with standard and low nitrite content, and low substituted hydroxypropyl cellulose (L-HPC) from the drug product composition were subjected to accelerated storage conditions (40° C. and 50° C.) for periods up to 1 month. […]
Binary mixtures were prepared in the same portion as present in the formulation. The samples were packed in alu bags. […]
2.8. Sample solution-ribociclib FCT (KISQALI®) • 1. Grind and homogenize 10 tablets (IKA mill can be used). • 2. Into a 10 mL amber volumetric flask accurately about 180 mg of tablet powder (corresponding to 80 mg of ribociclib free base). • 3. Add solvent (50% MeOH) up to ⅔ of flask volume. Vortex the sample for 1 minute and shake on a mechanical shaker for at least 15 min. Fill to volume with solvent and use vortex for 1 minute. • 4. Filter through 0.2 μm PVDF or PTFE filter into a HPLC amber vial, discard the first 0.5 mL. […]
The content of DMP433 was analysed. […]

[2] = Validation of the HPLC-HRMS method for N-nitroso-ribociclib (precision, accuracy, linearity, LOQ, stability of standard and sample solutions)
Protocol: For the purpose of this validation only, the 100% target limit was set at 3.75 ppm (1500 ng NRR/400 mg ribociclib free base).
Six replicates of the “Sample solution” were prepared according to the procedure described above and tested on the same day. The results are expressed as ppm of NNR with regard to ribociclib free base (μg NNR/g ribociclib free base)
Two series of six replicates of the “Sample solutions” were prepared according to the procedure described above and tested by two different analysts, on two different days, using different LC/MS systems and different columns. The results are expressed as ppm of NNR with regard to ribociclib free base (μg NNR/g ribociclib free base)
Three replicates of calibration standard solutions L1 (c=0.5 ng/ml) and L6 (c=100 ng/ml) were prepared according to the procedure described above. Solutions were stored in the dark at room temperature (autosampler (AS) vials). After a period of time, the solutions were reanalyzed. The stability of standard solutions is evaluated by determining the relative difference between the responses […] The results are expressed as concentration in ng/ml, determined from calibration curve in each sequence (time point).
Three replicates of Sample solution were prepared according to AP. The replicates were analysed at t=0 h and after app. 24 hours and 48 hours of storage in vials AS at room temperature. The results are expressed as ppm of NNR wrt ribociclib free base. (μg NNR/g ribociclib free base).
In addition, FCT samples stored in flasks on the bench were filtered at defined time point and analysed. For 48 hours stability, composite samples (from Accuracy) were used.
Sample solutions were prepare according to the procedure described above using 10 mL, 25 mL and 50 mL flasks, three replicates for each volume. Results for 25 mL and 50 mL were compared to 10 mL volume that is prescribed in the AP. The results are expressed as ppm of NNR with regard to ribociclib free base (μg NNR/g ribociclib free base)
For ribociclib FCT, one composite sample preparation and three replicates of spiked composite sample solutions (prepared as described above) were prepared and tested on the same day.
The samples (drug substance or composite sample) were spiked at 0.5 ng/ml (0.0625 ppm), 30 ng/mlL (3.75 ppm) and 100 ng/ml (12.5 ppm) levels. Amount of NNR present in the unspiked sample was subtracted and recoveries were calculated as a ratio between amounts found and amounts added.
In each sequence, calibration solution L1 was injected six times as part of SST test (Repeatability of injections) and the average response was taken for the calculation of calibration curve. Linear regression was weighed with 1/amount.
Amount of NNR present in the unspiked sample was subtracted (see above) and RSD of corrected amounts calculated.

[3] = DMP433 (N-nitroso-ribociclib) content in ribociclib base (B10) and ribociclib succinate (B12, drug substance) batches and process experiments, LC-MS/MS or HPLC-HRMS; format: physicochemical; details: for DMP433 in LEE011-B12 (IP): B10 Raybow batch 805193A078
Text: The method of testing for the presence and/or total amount of nitrosamines (such as the presence and/or total amount of N-nitroso-ribociclib in free or salt form) that is used in the methods of the invention may be any method which allows for the detection of nitrosamines in a composition. For example, the method may involve the Griess test described above. In such a method, the nitrosamines may be first denitrosated (e.g., by photolysis) to form a nitrite, which is then detected in the Griess test. Alternatively, the method may include high performance liquid chromatography (HPLC)- and/or gas chromatography (GC)-mass spectroscopy. An example of a method of testing for the presence and amount of nitrosamines (namely N-nitroso-ribociclib) is provided herein as Example 14. […]
2.7. […] Dissolve the substance using vortex and fill to volume with solvent (50% MeOH). • 3. Filter through 0.2 μm PVDF (polyvinylidene difluoride) or PTFE (polytetrafluoroethylene) filter into a HPLC amber vial, discard the first 0.5 ml.
A calibration curve for DMP433 is created, using calibration standard solutions L1-L6, and expressing the relationship between responses (peak areas) and standard concentrations (ng/ml). For L1, the average of 6 injections is used. Linear regression is weighed with 1/amount. […]

[4] = NDMA content in LEE011-B12 (IP) after ion exchange resin treatment (option 2 process); format: physicochemical; details: (n.d.)
[5] = Nitrite content (ion chromatography; LC-FLD with DAN derivatisation; Griess test) in drug substance, intermediates, reagents, solvents, filters, excipients; format: physicochemical; details: Raybow batch 805193A078, starting material of resin loading experiments
In short: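 Nitrite measured by Griess reaction (sulfanilamide diazotisation, N-(1-naphthyl)ethylenediamine azo coupling, spectrophotometric read) or by DAN derivatisation with C18 HPLC-fluorescence (10 mM KH2PO4 pH 8.0/methanol). About 1000 mg sample in 10 mL methanol/water 1:1; comparison standard ≈100 ppb nitrite.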

[6] = DSC, heating rate 10 ° C./min (with pinhole), cited from earlier work

- DMP433 content ([1]; T0, binary mixtures/blends/compacts, alu bags): 0.7 ppm
- DMP433 content ([1]; T 1 m (50° C./75% RH), alu bags): 1.1 ppm
- DMP433 content ([1]; T 2 w (40° C./75% RH), alu bags): 0.9 ppm
- DMP433 content ([1]; T 2 w (50° C./75% RH), alu bags): 0.8 ppm
SMILES: CN(C)C(=O)c1cc2cnc(Nc3ccc(N4CCNCC4)cn3)nc2n1C1CCCC1.O=C(O)CCC(=O)O [DS (B699003AA) (compact)]

- DMP433 content ([1]; binary studies of drug substance with excipients, T0): 0.7 ppm
- DMP433 content ([1]; binary studies, 40° C., T 2 Weeks): 0.9 ppm
- DMP433 content ([1]; binary studies, 50° C., T 1 Month): 1.1 ppm
- DMP433 content ([1]; binary studies, 50° C., T 2 Weeks): 0.8 ppm
SMILES: CN(C)C(=O)c1cc2cnc(Nc3ccc(N4CCNCC4)cn3)nc2n1C1CCCC1.O=C(O)CCC(=O)O [DS (B699003AA) compact]

- NNR Amount found (ppm) ([2]; level S0, unspiked): 0.3328 ppm and 0.3246 ppm and 0.3256 ppm
- NNR Amount found (ppm) ([2]; level S2, spiked 3.75 ppm): 3.5823 ppm and 3.7302 ppm and 3.8822 ppm
SMILES: CN(C)C(=O)c1cc2cnc(Nc3ccc(N4CCNCC4)cn3)nc2n1C1CCCC1.O=C(O)CCC(=O)O [Ribociclib Succinate Drug Substance]
- NNR Amount found (ppm) ([2]; level S1, spiked 0.0625 ppm): 0.3754 ppm and 0.3778 ppm and 0.3796 ppm and 0.3774 ppm and 0.3781 ppm and 0.3824 ppm
- NNR Amount found (ppm) ([2]; level S3, spiked 12.5 ppm): 11.0295 ppm and 11.6248 ppm and 11.8859 ppm

- depletion of DMP433 in the ribociclib succinate (B12) crystal by additional washing ([3]; 3 washes vs 2 washes of isopropanol): about 38%
- DMP433 in LEE011-B12 (IP) ([3]; resin loading vs B10 20 w/w %, option 2 process): 220 ppb
- DMP433 in LEE011-B12 (IP) ([3]; resin loading vs B10 50 w/w %, wet cake): 211 ppb
- DMP433 in LEE011-B12 (IP) ([3]; resin loading vs B10 100 w/w %, wet cake): 238 ppb
- NDMA in LEE011-B12 (IP) ([4]; resin loading vs B10 20 w/w %): <100 ppb
- NDMA in LEE011-B12 (IP) ([4]; resin loading vs B10 50 w/w %): <100 ppb
- NDMA in LEE011-B12 (IP) ([4]; resin loading vs B10 100 w/w %): <100 ppb
SMILES: CN(C)C(=O)c1cc2cnc(Nc3ccc(N4CCNCC4)cn3)nc2n1C1CCCC1.O=C(O)CCC(=O)O [Ribociclib succinate]

- DMP433 in LEE011-B10 ([3]; Raybow batch 805193A078, starting material of resin loading experiments): 92 ppb
- DMP433, best result ([3]; isopropanol distilled over ascorbic acid, B10 added last): 0.34 ppm
- Nitrite in LEE011-B10 [5]: 257 ppb
SMILES: CN(C)C(=O)c1cc2cnc(Nc3ccc(N4CCNCC4)cn3)nc2n1C1CCCC1 [Ribociclib, 7-cyclopentyl-N, N-dimethyl-2-{[5-(piperazin-1-yl)pyridin-2-yl]amino}-7H-pyrrolo[2,3-d]pyrimidine-6-carboxamide]

SMILES: CN(C)C(=O)c1cc2cnc(Nc3ccc(N4CCNCC4)cn3)nc2n1C1CCCC1.O=C(O)CCC(=O)O [ribociclib succinate Form E]
- Endothermic onset [6]: 210.0 °C
- Enthalpy ([6]; melting/decomposition, for information only): 194.8 J/g

- NNR Average (ppm), Ruggedness ([2]; n = 6): 0.241 ppm
- NNR Total average (ppm) ([2]; n = 12, intermediate precision): 0.240 ppm
SMILES: CN(C)C(=O)c1cc2cnc(Nc3ccc(N4CCNCC4)cn3)nc2n1C1CCCC1.O=C(O)CCC(=O)O [ribociclib succinate drug substance]
- NNR (ppm), Ruggedness, single replicate ([2]; second analyst, day, LC/MS system and column, replicates R1-R6): 0.287 ppm and 0.243 ppm and 0.244 ppm and 0.176 ppm and 0.262 ppm and 0.235 ppm
